In paper PMC8725537, “Assessment of NSAIDs as potential inhibitors of the fatty acid amide hydrolase I (FAAH-1) using three different primary fatty acid amide substrates in vitro” (BMC Pharmacology & Toxicology, 2022):
Where two headings read alike, the source gives them in different places. Values belong to the compound of their own block, whether it stands above or below them.

What was measured:
[1] = biological target: T1, FAAH-1 (Rattus norvegicus, UniProt P97612); assay: Inhibition of rat liver FAAH-1 oleamide hydrolase activity by NSAIDs (500 μM screen and concentration-inhibition curves); type: biochemical; settings: for FAAH-1 oleamide hydrolase activity, % of control: 500 μM NSAID, oleamide substrate, rat liver
T1 construct: Liver obtained from male Wister rats; from tissue; host or cells: rat liver homogenate, 20,000 g membrane pellet (male Wistar rats, Charles River Laboratories)
T1 sequence (P97612 1-579): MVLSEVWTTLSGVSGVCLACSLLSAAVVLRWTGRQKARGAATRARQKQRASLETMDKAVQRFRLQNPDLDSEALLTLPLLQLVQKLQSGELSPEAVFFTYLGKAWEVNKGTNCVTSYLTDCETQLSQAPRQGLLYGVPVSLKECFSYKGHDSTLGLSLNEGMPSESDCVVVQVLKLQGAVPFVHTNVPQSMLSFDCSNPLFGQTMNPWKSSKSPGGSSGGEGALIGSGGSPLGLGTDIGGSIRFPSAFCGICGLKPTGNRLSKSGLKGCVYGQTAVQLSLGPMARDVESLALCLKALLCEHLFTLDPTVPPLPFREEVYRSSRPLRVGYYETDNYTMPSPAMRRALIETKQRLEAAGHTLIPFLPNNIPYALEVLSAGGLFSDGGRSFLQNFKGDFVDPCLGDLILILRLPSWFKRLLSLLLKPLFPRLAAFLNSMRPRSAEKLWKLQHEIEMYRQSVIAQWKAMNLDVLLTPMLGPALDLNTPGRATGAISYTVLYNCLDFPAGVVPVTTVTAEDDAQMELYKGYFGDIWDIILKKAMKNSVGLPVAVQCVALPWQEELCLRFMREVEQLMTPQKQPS
Procedure: (§1) FAAH-1 activity was studied in rat liver homogenate.
(§2) Liver obtained from male Wister rats (150–250 g, Charles River Laboratories, Wilmington, USA) which had been stored at − 40 °C was thawed. A volume of 6 ml/g wet weight of rat liver was homogenized in 0.2 M potassium phosphate buffer, pH 7.4 using a hand held homogenizer (Ultra-turrax) (Merck KGaA, Darmstadt, Germany). The resulting mixture was centrifuged at 250 g for 10 min after which the pellet obtained was re-homogenised and centrifuged as aforementioned. The supernatants were combined and centrifuged at 20,000 g for 30 min, after which the membrane containing pellet was re-suspended in 1:1^w/v 0.2 M potassium phosphate buffer, pH 7.4, and stored in 1 ml aliquots at − 40 °C.
FAAH-1 activity was assayed essentially as described previously. Briefly, rat liver homogenate was pre-incubated at 37 °C with shaking (50 × 10 rpm) for 10 min in 0.2 M phosphate buffer, pH 7.4 in 96-well microtitre plates (Thermo Scientific Inc., Waltham, USA) prior to substrate addition and incubation at 37 °C for 30 min. […] Substrate blank and a control containing 0.2 M phosphate buffer, pH 7.4, were incorporated into the experiments.
(§3) Effect of 500 μM concentration of NSAIDs (SIGMA-ALDRICH, Poole, UK) on each enzyme activity was analysed by removing the baseline line. Each specific activity was then plotted as percentage of control. Specific activity obtained at each inhibitor concentration for the concentration-inhibition curves were normalized and analysed using the inbuilt log (inhibitor) versus response variable slope (robust fit) and were constrained at the bottom (= 0.0%). Each specific activity was then plotted as percentage of the control. To determine the mode of inhibition, Vmax values were initially extrapolated from the (NH4)2SO4 standard curve plotted using the inbuilt second order polynomial (quadratic) Michaelis-Menten enzyme kinetics. These values were then adjusted using the protein concentrations of the preparations obtained from the Lowry protocol (Fig. SS1 and SS2).

[2] = biological target: T1, FAAH-1; assay: Rat liver FAAH-1 hydrolysis of primary fatty acid amide substrates (Michaelis-Menten, OPA fluorescence ammonia assay); type: biochemical; settings: for Km / Vmax: rat liver FAAH-1, compound as substrate, pH 7.4, mean ± SEM n = 4
Procedure: as §1, §2
(§4) FAAH-1 activity was assayed essentially as described previously. Briefly, rat liver homogenate was pre-incubated at 37 °C with shaking (50 × 10 rpm) for 10 min in 0.2 M phosphate buffer, pH 7.4 in 96-well microtitre plates (Thermo Scientific Inc., Waltham, USA) prior to substrate addition and incubation at 37 °C for 30 min. The 100 μl total assay reaction mixtures were halted with an equivalent volume of o-phthaldehyde (OPA) developing solution (0.4 M potassium phosphate buffer, pH 11.5) and incubated further at 37 °C for 15 min before assessing fluorescence using a FLUOstar Galaxy (Excitation 390 nm, Emission 450–10 nm) (BMG LABTECH GmbH, Ortenberg, Germany). Substrate blank and a control containing 0.2 M phosphate buffer, pH 7.4, were incorporated into the experiments.
as §3, with “Data obtained were entered into a Microsoft Excel 2010 spread sheet and analysed with GraphPad Prism computer software programme (GraphPad Software Inc., San Diego, CA USA). Effect” for “Effect”
Fig. 1 Hydrolysis of oleamide (a), arachidonamide (b) and stearoylamide (c) by rat liver FAAH-1 activity. Rat liver FAAH-hydrolytic activity of each primary amide substrate in vitro, was assayed by quantification of ammonia released after hydrolysis. Ammonia generated in the presence of sulphite ions is reacted with alkaline o-phthaldehyde (OPA) to generate the stable fluorescent isoindole derivative (1-sulphonatoisoindole) which is quantified by fluorescent spectroscopy. Four separate experiments with three replicates on the same microtiter plate were conducted for each substrate using different rat liver preparations. Data are mean ± SEM (Standard Error of the Mean) of four separate preparations (n = 4) conducted in triplicate

[3] = biological target: T1, FAAH-1; assay: Mode of inhibition of rat liver FAAH-1 hydrolysis of oleamide and arachidonamide (Michaelis-Menten with inhibitor); type: biochemical; settings: for Vmax (nmol/min/mg protein): Control (no inhibitor), compound as substrate; for Mode of inhibition of FAAH activity: Michaelis-Menten analysis, oleamide and arachidonamide substrates
Procedure: as §4
as §3, with “Data obtained were entered into a Microsoft Excel 2010 spread sheet and analysed with GraphPad Prism computer software programme (GraphPad Software Inc., San Diego, CA USA). Effect” for “Effect”
Unlike aspirin which is an irreversible inhibitor of COX enzymes, most other NSAIDs are reversible competitive inhibitors of the COX enzymes.
Data are mean ± SEM (Standard Error of the Mean) of four separate preparations (n = 4) conducted in triplicate

[4] = system: rat brain FAAH-1; set-up: method as in PMID 23240907; settings: rat brain FAAH-1, pH 7.4 ref 52; cited from earlier work
[5] = system: FAAH-1 in rat liver preparations; settings: cited from earlier work
[6] = system: FAAH-1 in rat brain; set-up: method as in ref 41 = [41]; 41. Garle MJ, Clark JS and Alexander SPH. A fluorescence-derivatisation assay for fatty acid amide hydrolase activity. 2005; pA2 Online. E-journal of the British Pharmacological Society.; settings: oleamide hydrolysis, rat brain ref 41; cited from earlier work
[7] = system: rat recombinant FAAH; set-up: method as in PMID 10571985; settings: pH 9, oleamide hydrolysis ref 45; read-out: affinity (Km); cited from earlier work
[8] = system: FAAH; set-up: method as in ref 68 = [68]; 68. Dongdem JT Dawson SP Alexander SPH Characterization of [3-(3-carbamoylphenyl) phenyl] N-cyclohexyl carbamate, an inhibitor of FAAH: effect on rat liver FAAH and HEK293T-FAAH-2 deamination of oleam; settings: cited from earlier work
[9] = rat liver oleamide hydrolase activity, NSAID 4.0 × 10^-6 to 1.024 × 10^-3 M in absolute ethanol, n = 4

FAAH-1 oleamide hydrolase activity, % of control [1]: appeared to enhance enzyme activity
SMILES: CC(=O)Nc1ccc(O)cc1 [Acetaminophen]

SMILES: CCCCC/C=C\C/C=C\C/C=C\C/C=C\CCCC(N)=O [Arachidonamide]
FAAH-1 capacity (Vmax) higher compared with oleamide ([2]; rat liver FAAH-1): 12%
FAAH-1 capacity (Vmax) higher than that for stearoylamide ([2]; rat liver FAAH-1): 75%
Km [2]: 44.9 ± 7 µM
Vmax [2]: 10.1 ± 3.0 nmol/min/mg protein
Vmax (nmol/min/mg protein) [3]: 8.4 ± 1.2 nmol/min/mg protein

FAAH-1 oleamide hydrolase activity, % of control [1]: below 50 % of control
SMILES: CC(C(=O)O)c1ccc2c(c1)[nH]c1ccc(Cl)cc12 (stereo not drawn) [Carprofen]
pIC50 [4]: 4.10

FAAH-1 oleamide hydrolase activity, % of control [1]: below 50 % of control
IC50 [1, 9]: 1260 µM
SMILES: O=C(O)Cc1ccccc1Nc1c(Cl)cccc1Cl [Diclofenac]

FAAH-1 oleamide hydrolase activity, % of control [1]: below 50 % of control
IC50 [1, 9]: 708 µM
SMILES: O=C(O)c1cc(-c2ccc(F)cc2F)ccc1O [Diflunisal]

pIC50 (M) [1, 9]: 2.77 ± 0.07 M
SMILES: Cc1c(N(C)CS(=O)(=O)[O-])c(=O)n(-c2ccccc2)n1C.[Na+] [Dipyrone]

SMILES: CC(C)Cc1ccc(C(C)C(=O)O)cc1 (stereo not drawn) [Ibuprofen]
pIC50 [4]: 3.1

Mode of inhibition of FAAH activity [3]: non-competitive type inhibition
Vmax (nmol/min/mg protein) in presence of inhibitor ([3]; substrate arachidonamide, + 200 μM inhibitor): 7.2 ± 0.9 nmol/min/mg protein
Vmax (nmol/min/mg protein) in presence of inhibitor ([3]; substrate oleamide, + 200 μM inhibitor): 3.8 ± 0.4 nmol/min/mg protein
SMILES: COc1ccc2c(c1)c(CC(=O)O)c(C)n2C(=O)c1ccc(Cl)cc1 [Indomethacin]
pIC50 [4]: 4.18

FAAH-1 oleamide hydrolase activity, % of control [1]: below 50 % of control
IC50 [1, 9]: 1230 µM
SMILES: O=C(c1ccccc1)c1ccc2n1CCC2C(=O)O (stereo not drawn) [Ketorolac]

FAAH-1 oleamide hydrolase activity, % of control [1]: complete inhibition
IC50 [1, 9]: 269 µM
Mode of inhibition of FAAH activity [3]: non-competitive type inhibition
Vmax (nmol/min/mg protein) in presence of inhibitor ([3]; substrate arachidonamide, + 100 μM inhibitor): 6.7 ± 1.0 nmol/min/mg protein
Vmax (nmol/min/mg protein) in presence of inhibitor ([3]; substrate oleamide, + 100 μM inhibitor): 2.9 ± 0.1 nmol/min/mg protein
SMILES: Cc1ccc(Cl)c(Nc2ccccc2C(=O)O)c1Cl [Meclofenamic acid]

Vmax [2]: 8.9 ± 1.1 nmol/min/mg protein
Km ([2]; read-out: Km): 177 ± 15.5 µM
Vmax (nmol/min/mg protein) [3]: 4.6 ± 0.5 nmol/min/mg protein
SMILES: CCCCCCCC/C=C\CCCCCCCC(N)=O [Oleamide]
Vmax ([5]; oleamide hydrolysis, rat liver preparations ref 41): 15 nmol.min^− 1.mg protein^− 1
Km ([5]; oleamide hydrolysis, rat liver preparations ref 41, read-out: Km): 129 µM
Vmax ([5]; rat liver FAAH-catalysed oleamide hydrolysis ref 44): 5.7 nmol.min^− 1.mg protein^− 1
Km ([5]; rat liver FAAH-catalysed oleamide hydrolysis ref 44, read-out: affinity (Km)): 104 µM
Km [6]: 179 µM
Km [7]: 37 ± 7 µM

Vmax [2]: 2.5 ± 0.6 nmol/min/mg protein
Km ([2]; read-out: Km): 4.6 ± 0.8 µM
SMILES: CCCCCCCCCCCCCCCCCC(N)=O [Stearoylamide]

IC50 [1, 9]: 447 µM
SMILES: CC1=C(CC(=O)O)c2cc(F)ccc2/C1=C\c1ccc(S(C)(=O)=O)cc1 [Sulindac sulphone]

FAAH-1 oleamide hydrolase activity, % of control [1]: below 50 % of control
IC50 [1, 9]: 224 µM
SMILES: CC1=C(CC(=O)O)c2cc(F)ccc2/C1=C\c1ccc([S+](C)[O-])cc1 (stereo not drawn) [Sulindac]

SMILES: NC(=O)c1cccc(-c2cccc(OC(=O)NC3CCCCC3)c2)c1 [URB597]
Mode of FAAH inhibition [8]: uncompetitive

IC50 [1, 9]: 1000 µM
SMILES: Cc1onc(-c2ccccc2)c1-c1ccc(S(N)(=O)=O)cc1 [Valdecoxib]

FAAH-1 oleamide hydrolase activity, % of control [1]: appeared to enhance enzyme activity
SMILES: CC(=O)Oc1ccccc1C(=O)O [acetyl salicylic acid]

FAAH-1 activity (%) (basal oleamide hydrolysis, % of control) ([1]; 15% assay ethanol): 95 ± 1%
FAAH-1 activity (%) (basal oleamide hydrolysis, % of control) ([1]; 20% assay ethanol): 78 ± 1%
FAAH-1 activity (%) (basal oleamide hydrolysis, % of control) ([1]; 25% assay ethanol): 76 ± 4%
SMILES: CCO [ethanol]
